Assay: Solid-state stability of polymorph Form I: conversion into other forms under normal storage and stress conditions
Format: physicochemical
Description: The three crystalline polymorphic forms of the compound of formula designated as Form 1, II and III can readily be distinguished from one another by examination of the characteristic x-ray Diffraction patterns (see FIGS. 1-3), the characteristic infrared spectra (see FIGS. 4-6) and the characteristic Differential Scanning Calorimetry ([…]) thermograms (FIGS. 7-9).

conversion into any other form (normal storage conditions (15′-30° C. and protected from light)): did not convert into any other form
conversion into any other form (stress condition: 75% relative humidity at 40° C. for 6 weeks): did not convert into any other form
conversion into any other form (stress condition: 75° C. for 6 weeks): did not convert into any other form
conversion into any other form (stress condition: 97% relative humidity at ambient temperature for 2 minutes): did not convert into any other form
conversion into any other form (stress condition: 150° C. for 2 hours): did not convert into any other form
Compound: CCC([C@H](C)O)n1ncn(-c2ccc(N3CCN(c4ccc(OC[C@@H]5CO[C@@](Cn6cncn6)(c6ccc(F)cc6F)C5)cc4)CC3)cc2)c1=O (single isomer, unassigned; (-)) [Form 1]
